In ChEMBL document CHEMBL4402579, “Identification of Potent In Vivo Autotaxin Inhibitors that Bind to Both Hydrophobic Pockets and Channels in the Catalytic Domain” (J Med Chem, 2020) one finds inhibition and IC50 data, which are given here for 56 molecules.

Activity calls are given as the source filed them. The calls are words filed in the database; no cut-off is given here.

The target in assay [1] is T1, Autotaxin (Homo sapiens, UniProt Q13822). Put plainly: Inhibition of ATX (unknown origin)-mediated cell migration in human MDA-MB-231 cells assessed as reduction in cell motility after 3 hrs by Diff-Quick staining based microplate reader analysis.
The target of assay [2] is Autotaxin (Mus musculus) (UniProt Q9R1E6). The assay can be described thus: Inhibition of ATX in mouse plasma assessed as reduction in LPA prodution at 10 uM after 3 hrs by LC-MS/MS analysis. In kind it is cell-free.
For assay [3] the target is unchanged. The assay can be described thus: Inhibition of ATX in mouse plasma assessed as reduction in LPA prodution after 3 hrs by LC-MS/MS analysis. In kind it is cell-free.
In assay [4] the target is Autotaxin (Mus musculus, UniProt Q9R1E6). Put plainly: Inhibition of ATX in mouse plasma after 2 hrs by LC-MS/MS analysis. In kind it is cell-free.
For a further assay, the system named is Mus musculus. The assay can be described thus: In vivo inhibition of ATX in C57BL/6J mouse assessed as reduction in serum LPA level at 4 mg/kg, iv after 15 mins to 3 hrs by LC-MS/MS analysis. It is filed as functional, organism-based.
Assay [5] deals with T1, Autotaxin. Put plainly: Inhibition of ATX (unknown origin) expressed in human HEK293 cells using TG-mTMP as substrate after 2 hrs by fluorescence based plate reader assay.
Assay [6] concerns the target Autotaxin (Mus musculus) (UniProt Q9R1E6). Put plainly: Inhibition of mouse ATX expressed in one-cell stage zebra fish embryos assessed as rescue of cardia bifida phenotype at 10 uM incubated for 12 to 24 hrs post fertilization in presence of Ki16425 by whole mount in situ hybridization based microscopic analysis relative to control.
For a further assay, the species on record is Danio rerio. The assay can be described thus: Inhibition of AB/TU zebra fish ATX expressed in one-cell stage zebra fish embryos assessed as rescue of carida bifida phenotype at 10 uM incubated for 12 to 24 hrs post fertilization in presence of Ki16425 by whole mount in situ hybridization based microscopic analysis relative to control.

The term inhibition denotes the share of the control response that was lost under treatment. Broadly, the IC50 is the concentration needed to halve the response being measured. Take `CCCCCCn1c(C)cc(=O)n2cc(-c3ccc(Cl)cc3)nc12`: the inhibition result on Autotaxin [1] and at Autotaxin (Mus musculus) [3] was “Dose-dependent effect” each time. The inhibition entry at Autotaxin (Mus musculus) [2] and with Mus musculus was “Active” in each case. The IC50 on Autotaxin [4] (read-out: IC50) amounted to 9.9 nM.
As for `CCC(=O)Cn1c(C)cc(=O)n2cc(-c3ccc(Cl)cc3)nc12`, at Autotaxin (Mus musculus) [2], the inhibition result was “Active”. Further, on Autotaxin [4] (read-out: IC50), the concentration for half-maximal inhibition (IC50) came out at 37 nM.
As for `CCOC(=O)Cn1c(C)cc(=O)n2cc(-c3cccc(N)c3)nc12`, the IC50 at Autotaxin [4] (read-out: IC50) was greater than 10000 nM.
For `Cc1cc(O)n2cc(-c3ccc(F)cc3)nc2n1`, on Autotaxin (Mus musculus) [2], the inhibition result was “inactive”. The IC50 at Autotaxin [4] (read-out: IC50) was greater than 50000 nM.
For `CCCn1c(C)cc(=O)n2cc(-c3ccc(Cl)cc3)nc12`, the IC50 at Autotaxin [4] (read-out: IC50) stood at 21 nM.
For the molecule `Cc1ccc(-c2cn3c(O)cc(C)nc3n2)cc1`, the inhibition entry on Autotaxin (Mus musculus) [2] was “inactive”. Further, on Autotaxin [4] (read-out: IC50), the half-maximal inhibitory concentration (IC50) is greater than 50000 nM.
`CCOC(=O)Cn1c(C)cc(=O)n2cc(-c3cccc([N+](=O)[O-])c3)nc12`: the IC50 on Autotaxin [4] (read-out: IC50) stood at 500 nM.
In the case of `CCCCCCCCCC(=O)n1c(C)cc(=O)n2cc(-c3ccc(Cl)cc3)nc12`, the IC50 on Autotaxin [4] (read-out: IC50) was determined as 160 nM.
Still for that read-out and setting: with `CC(=O)OCn1c(C)cc(=O)n2cc(-c3ccc(Cl)cc3)nc12` the figure was 30 nM.
In turn, `CN1CCN(C2=NC(=O)/C(=C/c3ccc(Cl)c(Cl)c3)S2)CC1` showed an IC50 against Autotaxin [5] of 180 nM. For the same molecule, the values for the inhibition on Autotaxin (Mus musculus) [6] and in the assay filed under Danio rerio were 96% and 3%, respectively.
Take `CCOC(=O)Cn1c(C)cc(=O)n2cc(-c3ccc(Cl)c(Cl)c3)nc12`: the IC50 at Autotaxin [4] (read-out: IC50) was found to be 79 nM.
As for `CCCCCCCCCCCCCCCC(=O)n1c(C)cc(=O)n2cc(-c3ccc(Cl)cc3)nc12`, at Autotaxin [4], the IC50 entry is given as “Nd(Insoluble)”.
As for `Cc1cc(=O)n2cc(-c3ccc(Cl)cc3)nc2n1Cc1ccccc1`, the inhibition entry at Autotaxin (Mus musculus) [2] is “Active”. Also, on Autotaxin [4] (read-out: IC50), the IC50 came out at 31 nM.
As to `CCCCCn1c(C)cc(=O)n2cc(-c3ccc(Br)cc3)nc12`, on Autotaxin (Mus musculus) [2], the inhibition result was “Active”. On Autotaxin (Mus musculus) [3], the inhibition result is “Dose-dependent effect”. Also, the IC50 on Autotaxin [4] (read-out: IC50) came out at 23 nM.
In the case of `CCCCCCCn1c(C)cc(=O)n2cc(-c3ccc(Cl)cc3)nc12`, at Autotaxin (Mus musculus) [2], the inhibition result was “Active”. The IC50 at Autotaxin [4] (read-out: IC50) was found to be 16 nM.
The like results for `Cc1cc(O)n2cc(-c3ccccc3)nc2n1` were, in that order, “inactive” and greater than 50000 nM.
The like results for `Cc1cc(=O)n2cc(-c3ccc(Cl)cc3)nc2n1C1CCCCC1` were, in that order, “Active” and 73 nM.
In the same order, the values of `CCCCCn1c(C)cc(=O)n2cc(-c3ccc(C)cc3)nc12` are “Active” and 44 nM.
`Cc1cc(=O)n2cc(-c3ccc(Cl)cc3)nc2n1CC[N+](C)(C)C`: on Autotaxin [4] (read-out: IC50), the IC50 is greater than 50000 nM.
For the molecule `CCCCCn1c(C)cc(=O)n2cc(-c3ccc(Cl)cc3)nc12`, the inhibition entry on Autotaxin (Mus musculus) [2] and with Mus musculus was “Active” each time. The inhibition result at Autotaxin (Mus musculus) [3] was “Dose-dependent effect”. The IC50 on Autotaxin [4] (read-out: IC50) turned out to be 9.4 nM.
For `COC(=O)Cn1c(C)cc(=O)n2cc(-c3ccc(Cl)cc3)nc12`, the inhibition result on Autotaxin (Mus musculus) [2] was “inactive”. Also, the IC50 on Autotaxin [4] (read-out: IC50) was found to be 26 nM.
The like results for `Cc1cc(=O)n2cc(-c3ccc(Cl)cc3)nc2n1CC(=O)O` were, in that order, “inactive” and 7700 nM.
As to `CCOC(=O)Cn1c(C)cc(=O)n2cc(-c3ccc(Cl)cc3)nc12`, the results for the IC50 against Autotaxin [5] and at Autotaxin [4] (read-out: IC50) were 4.2 nM and 3.3 nM, respectively. The inhibition at Autotaxin (Mus musculus) [6] was found to be 93%; in the assay filed under Danio rerio, 8%. The inhibition result at Autotaxin (Mus musculus) [2] is “inactive”.
Consider `CCCCCCCN/C=C1\C(=O)N(c2ccc(F)cc2)C(=O)N=C1O`, for which the results for the inhibition at Autotaxin (Mus musculus) [6] and in the assay listed under Danio rerio were 94% and 1%, respectively.
Take `CCCCCn1c(C)cc(=O)n2cc(-c3ccc(F)cc3)nc12`: the inhibition entry on Autotaxin (Mus musculus) [2] was “Active”. Besides, on Autotaxin [4] (read-out: IC50), the IC50 is 71 nM.
Consider `CCCCCCCCn1c(C)cc(=O)n2cc(-c3ccc(Cl)cc3)nc12`, for which the IC50 on Autotaxin [4] (read-out: IC50) came to 57 nM.
For the molecule `Cc1nc2ccccn2c(=O)c1Cc1ccc(Cl)cc1`, the inhibition at Autotaxin (Mus musculus) [6] turned out to be 91%; in the assay filed under Danio rerio it was 6%.
Consider `Cc1cc(Cl)n2cc(-c3ccc(Cl)cc3)nc2n1`, for which, on Autotaxin [4] (read-out: IC50), the IC50 is greater than 50000 nM.
Same read-out and setting: with `CCOC(=O)Cn1c(C)cc(=O)n2cc(-c3ccc(N)cc3)nc12` the figure was greater than 10000 nM.
Still for that read-out and setting: with `CCCCCCCCCn1c(C)cc(=O)n2cc(-c3ccc(Cl)cc3)nc12` the figure was 120 nM.
As to `O=C1N=C(N2CCN(Cc3cccc(B(O)O)c3)CC2)S/C1=C\c1ccc(Cl)c(Cl)c1`, the IC50 on Autotaxin [5] is 13 nM. In addition, the inhibition on Autotaxin (Mus musculus) [6] was determined as 98%.
In the case of `Cc1cc(=O)n2cc(-c3ccc(Cl)cc3)nc2n1CC(=O)OC(C)(C)C`, at Autotaxin (Mus musculus) [2], the inhibition result was “inactive”. For the same molecule, the IC50 at Autotaxin [4] (read-out: IC50) was 90 nM.
Turning to `CCOC(=O)Cn1c(C)cc(=O)n2cc(-c3ccc(I)cc3)nc12`, at Autotaxin [4] (read-out: IC50), the IC50 came to 19 nM.
As to `Cc1cc(O)n2cc(-c3ccc([N+](=O)[O-])cc3)nc2n1`, the inhibition result at Autotaxin (Mus musculus) [2] was “inactive”. Further, at Autotaxin [4] (read-out: IC50), the IC50 is greater than 50000 nM.
In the same order, the values of `CCCCn1c(C)cc(=O)n2cc(-c3ccc(Cl)cc3)nc12` are “Active” and 15 nM.
`CCn1c(C)cc(=O)n2cc(-c3ccc(Cl)cc3)nc12`: the IC50 on Autotaxin [4] (read-out: IC50) came to 40 nM.
The same measure, in the same setting: the value for `Cc1cc(=O)n2cc(-c3ccc(Cl)cc3)nc2n1CCS(=O)(=O)O` was greater than 50000 nM; that for `Cc1cc(=O)n2cc(-c3ccc(Cl)cc3)nc2n1C` was 180 nM.
As to `CCNC(=O)Cn1c(C)cc(=O)n2cc(-c3ccc(Cl)cc3)nc12`, the inhibition entry on Autotaxin (Mus musculus) [2] was “inactive”. Moreover, the IC50 on Autotaxin [4] (read-out: IC50) turned out to be 370 nM.
Regarding `CCOC(=O)Cn1c(C)cc(=O)n2cc(-c3cccc(Br)c3)nc12`, at Autotaxin [4] (read-out: IC50), the IC50 is 4000 nM.
With `Cc1cc(O)n2cc(-c3ccc(Br)cc3)nc2n1`, at Autotaxin (Mus musculus) [2], the inhibition result is “inactive”. Further, the IC50 at Autotaxin [4] (read-out: IC50) is greater than 50000 nM.
For `CCOC(=O)Cn1c(C)cc(=O)n2cc(-c3ccc(F)cc3)nc12`, at Autotaxin (Mus musculus) [2], the inhibition result is “inactive”. Moreover, the IC50 on Autotaxin [4] (read-out: IC50) is 31 nM.
The like results for `Cc1cc(O)n2cc(-c3ccc(Cl)c(Cl)c3)nc2n1` were, in that order, “inactive” and greater than 50000 nM.
In the same order, the values of `Cc1cc(O)n2cc(-c3ccc(Cl)cc3)nc2n1` are “inactive” and greater than 50000 nM.
In the same order, the values of `CCOC(=O)Cn1c(C)cc(=O)n2cc(-c3ccc(Br)cc3)nc12` are “inactive” and 13 nM.
With `CCOC(=O)Cn1c(C)cc(=O)n2cc(-c3ccc(OC)cc3)nc12`, the inhibition result on Autotaxin (Mus musculus) [2] was “inactive”. For the same molecule, the IC50 at Autotaxin [4] (read-out: IC50) was 49 nM.
Consider `CCOC(=O)Cn1c(C)cc(=O)n2cc(-c3ccc([N+](=O)[O-])cc3)nc12`, for which the concentration for half-maximal inhibition (IC50) at Autotaxin [4] (read-out: IC50) is 14 nM.
In the case of `COc1ccc(-c2cn3c(O)cc(C)nc3n2)cc1`, at Autotaxin (Mus musculus) [2], the inhibition result was “inactive”. The IC50 at Autotaxin [4] (read-out: IC50) is greater than 50000 nM.
For `CCN(C)C(=O)Cn1c(C)cc(=O)n2cc(-c3ccc(Cl)cc3)nc12`, the IC50 on Autotaxin [4] (read-out: IC50) came out at 220 nM.
For `Cc1cc(O)n2cc(-c3cccc([N+](=O)[O-])c3)nc2n1`, the inhibition result at Autotaxin (Mus musculus) [2] was “inactive”. For the same molecule, the IC50 on Autotaxin [4] (read-out: IC50) was greater than 50000 nM.
With `COc1cc(C)nc2nc(-c3ccc(Cl)cc3)cn12`, the IC50 at Autotaxin [4] (read-out: IC50) is greater than 50000 nM.
Still for that read-out and setting: with `CCOC(=O)Cn1c(C)cc(=O)n2cc(-c3ccccc3)nc12` the figure was 72 nM.
Regarding `CCN1CCN(C2=NC(=O)/C(=C/c3ccc(Cl)cc3)S2)CC1`, the inhibition at Autotaxin (Mus musculus) [6] is 95%; in the assay filed under Danio rerio it was 10%.
On to `Cc1cc(O)n2cc(-c3cccc(Br)c3)nc2n1`, for which, at Autotaxin (Mus musculus) [2], the inhibition entry is “inactive”. Further, the IC50 at Autotaxin [4] (read-out: IC50) was greater than 50000 nM.
Take `CCOCCn1c(C)cc(=O)n2cc(-c3ccc(Cl)cc3)nc12`: the inhibition result at Autotaxin (Mus musculus) [2] is “Active”. Moreover, the IC50 on Autotaxin [4] (read-out: IC50) was 11 nM.
The like results for `Cc1cc(=O)n2cc(-c3ccc(Cl)cc3)nc2n1CC(=O)OCc1ccccc1` were, in that order, “inactive” and 56 nM.
